Measurements taken from US11708367B2, “Compounds for the treatment of kinase-dependent disorders” (Exelixis, Inc., priority 2018, dated 2023).

Key:
[1] = target: Mer (Homo sapiens (Human), UniProt Q12866); test: Human Mer kinase assay (33P radiometric, KinaseProfiler); type: biochemical; conditions: 10 μM ATP
Experimental: (§1) Kinase activity and compound inhibition were investigated using the ^33P-Phosphoryl transfer radiometric kinase assay, performed using the KinaseProfiler™ service of Eurofins Pharma Discovery Services UK Limited. Dose-response experiments were performed using nine compound concentrations in a 96-well microtiter plate. For each assay, all compounds were prepared to a 50× final assay concentration (50 μM) in 100% DMSO, then diluted in a half-log series, with the final top concentration at 1 μM. This working stock of the compound was added to the assay well as the first component in the reaction, followed by the remaining components as detailed in the following assay protocols below. The positive control wells (100% kinase activity) contain all components of the reaction including 2% DMSO (control for solvent effects), except the compound of interest. Blank wells contain all components of the reaction, with the reference inhibitor, staurosporine. This reference compound was used to abolish kinase activity and generated the 0% kinase activity base-line. IC50 values were calculated by nonlinear regression analysis using the sigmoidal dose-response (variable slope) curve fit on XLFit version 5.3 (ID Business Solutions).
Human Mer (residues R557-E882 with H628Q and R794A, 0.7 nM) was incubated with 8 mM MOPS pH 7.0, 0.2 mM EDTA, 30 mM NaCl, 250 μM GGMEDIYFEFMGGKKK (SEQ ID NO. 44), 10 mM magnesium acetate, and 10 μM [γ-33P-ATP]. The reaction was initiated by the addition of the Mg/ATP mix. After incubation for 40 minutes at room temperature, the reaction was stopped by the addition of phosphoric acid to a concentration of 0.5%. A reaction aliquot of 10 μL was then spotted onto a P30 filtermat and washed four times for 4 minutes in 0.425% phosphoric acid and once in methanol prior to drying and scintillation counting. Incorporated 33P was measured using the Wallac Microbeta scintillation counter (Perkin Elmer).

[2] = target: Human Axl (Homo sapiens (Human), UniProt P30530, Q764R); test: Human AXL kinase assay (33P radiometric, KinaseProfiler); type: biochemical; conditions: 10 μM ATP
Experimental: as §1
Human Axl (residues H473-A894 with Q764R, 161 nM) was incubated with 8 mM MOPS pH 7.0, 0.2 mM EDTA, 250 μM KKSRGDYMTMQIG (SEQ ID NO. 43), 10 mM magnesium acetate and 10 μM [γ-33P-ATP]. The reaction was initiated by the addition of the Mg/ATP mix. After incubation for 40 minutes at room temperature, the reaction was stopped by the addition of phosphoric acid to a concentration of 0.5%. A reaction aliquot of 10 μL was then spotted onto a P30 filtermat and washed four times for 4 minutes in 0.425% phosphoric acid and once in methanol prior to drying and scintillation counting. Incorporated ^33P was measured using the Wallac Microbeta scintillation counter (Perkin Elmer).

[3] = target: Met (Homo sapiens (Human), UniProt P08581); test: Human Met kinase assay (33P radiometric, KinaseProfiler); type: biochemical; conditions: 10 μM ATP, read-out: c-Met IC50
Experimental: as §1
Human Met (residues R974-S1390 with A1209G and V1290L, 3.4 nM) was incubated with 8 mM MOPS pH 7.0, 0.2 mM EDTA, 250 µM KKKGQEEEYVFIE (SEQ ID NO. 45), 1 mM sodium orthovanadate, 5 mM […], 10 mM magnesium acetate, and 10 μM [γ-33P-ATP]. The reaction was initiated by the addition of the Mg/ATP mix. After incubation for 40 minutes at room temperature, the reaction was stopped by the addition of phosphoric acid to a concentration of 0.5%. A reaction aliquot of 10 μL was then spotted onto a P30 filtermat and washed four times for 4 minutes in 0.425% phosphoric acid and once in methanol prior to drying and scintillation counting. Incorporated 33P was measured using the Wallac Microbeta scintillation counter (Perkin Elmer).

[4] = target: KDR (Homo sapiens (Human), UniProt P35968); test: KDR autophosphorylation ELISA in HUVEC cells; type: cell-based; conditions: cellular, VEGF165-stimulated, phospho-KDR ELISA
How it was run: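 Serum-starved (24 h) HUVECs were pre-treated with compound (8-point dose curve, 0.3% DMSO final) for 1 h, then stimulated with 100 ng/mL human VEGF165 for 5 min. Lysate phospho-KDR was quantified by ELISA against a phospho-KDR standard. IC50 came from a 4-parameter logistic fit, normalized to stimulated-DMSO (100%) and unstimulated (0%) controls.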

Sequence of KDR (P35968 20-1356): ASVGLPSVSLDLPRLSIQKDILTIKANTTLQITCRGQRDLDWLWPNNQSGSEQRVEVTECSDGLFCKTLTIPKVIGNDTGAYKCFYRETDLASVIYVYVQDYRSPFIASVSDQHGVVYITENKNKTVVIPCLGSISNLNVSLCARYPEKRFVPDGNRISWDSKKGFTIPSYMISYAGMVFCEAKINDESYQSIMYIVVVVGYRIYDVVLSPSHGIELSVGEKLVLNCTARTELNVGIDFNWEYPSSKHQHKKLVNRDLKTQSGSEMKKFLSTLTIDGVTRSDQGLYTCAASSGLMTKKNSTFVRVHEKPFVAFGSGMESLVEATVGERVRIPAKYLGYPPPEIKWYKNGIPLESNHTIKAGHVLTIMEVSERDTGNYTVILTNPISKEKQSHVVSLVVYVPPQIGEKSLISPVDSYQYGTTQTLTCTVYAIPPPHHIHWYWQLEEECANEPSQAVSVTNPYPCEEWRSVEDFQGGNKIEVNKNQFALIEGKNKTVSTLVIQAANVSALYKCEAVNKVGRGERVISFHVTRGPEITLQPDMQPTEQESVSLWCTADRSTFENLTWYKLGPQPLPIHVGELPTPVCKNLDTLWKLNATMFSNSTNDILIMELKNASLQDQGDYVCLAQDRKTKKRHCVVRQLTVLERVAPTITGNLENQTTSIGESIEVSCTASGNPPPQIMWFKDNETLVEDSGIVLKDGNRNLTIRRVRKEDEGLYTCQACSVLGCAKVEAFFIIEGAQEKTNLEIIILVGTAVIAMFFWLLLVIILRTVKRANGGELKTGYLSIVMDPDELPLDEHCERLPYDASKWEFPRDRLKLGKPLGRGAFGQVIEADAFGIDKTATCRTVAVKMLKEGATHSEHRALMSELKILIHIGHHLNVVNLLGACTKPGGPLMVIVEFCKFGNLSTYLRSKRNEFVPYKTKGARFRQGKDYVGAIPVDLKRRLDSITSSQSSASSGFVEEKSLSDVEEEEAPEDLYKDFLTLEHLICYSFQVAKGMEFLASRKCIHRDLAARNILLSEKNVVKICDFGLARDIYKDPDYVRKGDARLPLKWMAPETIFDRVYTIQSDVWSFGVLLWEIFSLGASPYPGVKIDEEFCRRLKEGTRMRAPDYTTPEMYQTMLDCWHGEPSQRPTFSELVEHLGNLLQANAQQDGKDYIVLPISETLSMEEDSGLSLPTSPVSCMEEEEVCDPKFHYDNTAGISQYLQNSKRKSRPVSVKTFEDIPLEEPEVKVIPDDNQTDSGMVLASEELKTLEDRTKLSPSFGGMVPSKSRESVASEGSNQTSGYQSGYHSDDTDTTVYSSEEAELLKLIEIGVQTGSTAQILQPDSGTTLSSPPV
Sequence of Mer (Q12866 557-882): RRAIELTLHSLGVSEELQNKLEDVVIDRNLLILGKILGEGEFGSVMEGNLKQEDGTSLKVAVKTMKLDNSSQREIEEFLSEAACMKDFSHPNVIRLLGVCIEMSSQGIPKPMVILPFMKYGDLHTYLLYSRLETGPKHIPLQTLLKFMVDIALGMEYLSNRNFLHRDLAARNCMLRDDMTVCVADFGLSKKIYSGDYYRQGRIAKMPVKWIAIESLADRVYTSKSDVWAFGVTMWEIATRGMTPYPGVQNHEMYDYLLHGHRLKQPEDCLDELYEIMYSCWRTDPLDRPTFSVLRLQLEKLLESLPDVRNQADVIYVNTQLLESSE
Sequence of Human Axl (P30530 473-894 Q764R): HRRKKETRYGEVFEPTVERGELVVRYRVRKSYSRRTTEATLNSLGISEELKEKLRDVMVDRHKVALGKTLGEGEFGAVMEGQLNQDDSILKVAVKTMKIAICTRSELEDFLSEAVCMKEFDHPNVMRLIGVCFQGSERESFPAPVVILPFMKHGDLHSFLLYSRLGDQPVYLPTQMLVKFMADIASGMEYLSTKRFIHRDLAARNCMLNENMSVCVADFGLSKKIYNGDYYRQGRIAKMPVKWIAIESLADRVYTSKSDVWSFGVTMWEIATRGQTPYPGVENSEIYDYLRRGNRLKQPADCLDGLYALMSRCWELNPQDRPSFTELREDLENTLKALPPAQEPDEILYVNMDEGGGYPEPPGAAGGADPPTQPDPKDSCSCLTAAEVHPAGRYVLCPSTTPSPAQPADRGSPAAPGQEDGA

Row | SMILES | IC50 [1] [nM] | IC50 [2] [nM] | IC50 [3] [nM] | IC50 [4] [nM]
1 | COc1cc2ncnc(Oc3ccc(NC(=O)C4(C(=O)Nc5ccc(F)cc5)CC4)cc3)c2nc1OC [Compound 28, 1-N-[4-(6,7-dimethoxy-pyrido[3,2-d]pyrimidin-4-yl)oxyphenyl]-1-N′-(4-fluorophenyl)cyclo-propane-1,1-dicarboxamide] | ≤ 10 | ≤ 10 | 10 to 100 | 10 to 100
2 | COc1nc2c(Oc3ccc(NC(=O)C4(C(=O)Nc5ccc(F)cc5)CC4)cc3Cl)ncnc2cc1OCCCN1CCOCC1 [Compound 66, 1-N′-[3-chloro-4-[6-methoxy-7-(3-morpholin-4-ylpropoxy)pyrido[3,2-d]pyrimidin-4-yl]oxyphenyl]-1-N-(4-fluorophenyl)cyclo-propane-1,1-dicarboxamide] | ≤ 10 | ≤ 10 | ≤ 10 | ≤ 10
3 | COc1cc2ncnc(Oc3ccc(NC(=O)C4(C(=O)Nc5ccc(F)cc5)CC4)cc3)c2cc1C(=O)NC[C@H]1CCCN1C(=O)OC(C)(C)C [Compound 119, tert-butyl (2R)-2-[[[4-[4-[[1-[(4-fluoro-phenyl)carbamoyl]cyclo-propane-carbonyl]amino]phenoxy]-7-methoxyquinazoline-6-carbonyl]amino]methyl]pyr-rolidine-1-carboxylate] | 10 to 100 | 10 to 100 | 100 to 1000 | 10 to 100
4 | COc1cc2nccc(Oc3ccc(NC(=O)C4(C(=O)Nc5ccc(F)cc5)CC4)cc3Cl)c2nc1OC [Compound 141, 1-N′-[3-chloro-4-[(6,7-dimethoxy-1,5-naphthyridin-4-yl)oxy]phenyl]-1-N-(4-fluorophenyl)cyclo-propane-1,1-dicarboxamide] | ≤ 10 | 10 to 100 | ≤ 10 | ≤ 10
5 | COc1cc2ncnc(Oc3ccc(NC(=O)C4(C(=O)Nc5ccc(F)cc5)CC4)cc3Cl)c2nc1OC [Compound 29, 1-N′-[3-chloro-4-(6,7-dimethoxypyrido[3,2-d]pyrimidin-4-yl)oxyphenyl]-1-N-(4-fluorophenyl)cyclo-propane-1,1-dicarboxamide] | ≤ 10 | 10 to 100 | ≤ 10 | ≤ 10
6 | COc1cc2ncnc(Oc3ccc(NC(=O)C4(C(=O)Nc5ccc(F)cc5)CC4)cc3)c2cc1C(=O)NC[C@H]1CCCN1 [Compound 121, 1-N′-(4-fluorophenyl)-1-N-[4-[7-methoxy-6-[[(2R)-pyrrolidin-2-yl]methyl-carbamoyl]quinazolin-4-yl]oxyphenyl]cyclopropane-1,1-dicarboxamide] | ≤ 10 | ≤ 10 | ≤ 10 | 100 to 300
7 | COc1cc2c(Oc3ccc(NC(=O)C4(C(=O)Nc5ccc(F)cc5)CC4)cc3)ncnc2cn1 [Compound 91, 1-N′-(4-fluorophenyl)-1-N-[4-(6-methoxypyrido[3,4-d]pyrimidin-4-yl)oxyphenyl]cyclopropane-1,1-dicarboxamide] | 10 to 100 | 100 to 1000 | 100 to 1000 | > 300
8 | COc1cc2ncnc(Oc3ccc(NC(=O)C4(C(=O)Nc5ccc(F)cc5)CC4)cc3)c2cc1C(=O)NC[C@@H]1CCCN1C(=O)OC(C)(C)C [Compound 120, tert-butyl (2S)-2-[[[4-[4-[[1-[(4-fluoro-phenyl)carbamoyl]cyclo-propane-carbonyl]amino]phenoxy]-7-methoxyquinazoline-6-carbonyl]amino]methyl]pyr-rolidine-1-carboxylate] | 10 to 100 | 10 to 100 | 100 to 1000 | 100 to 300
9 | COc1cc2ncnc(Oc3ccc(NC(=O)C4(C(=O)Nc5ccc(F)cc5)CC4)cc3F)c2nc1OC [Compound 30, 1-N′-[4-(6,7-dimethoxypyrido[3,2-d]pyrimidin-4-yl)oxy-3-fluorophenyl]-1-N-(4-fluorophenyl)cyclopropane-1,1-dicarboxamide] | ≤ 10 | ≤ 10 | ≤ 10 | ≤ 10
10 | COc1cc2nccc(Oc3ccc(NC(=O)C4(C(=O)Nc5ccc(F)cc5)CC4)cc3F)c2nc1OC [Compound 140, 1-N′-[4-[(6,7-dimethoxy-1,5-naphthyridin-4-yl)oxy]-3-fluorophenyl]-1-N-(4-fluorophenyl)cyclopropane-1,1-dicarboxamide] | ≤ 10 | ≤ 10 | ≤ 10 | ≤ 10
11 | COc1cc2ncnc(Oc3ccc(NC(=O)C4(C(=O)Nc5ccc(F)cc5)CC4)cc3)c2cc1C(N)=O [Compound 117, 1-N-[4-(6-carbamoyl-7-methoxyquinazolin-4-yl)oxyphenyl]-1-N′-(4-fluorophenyl)cyclopropane-1,1-dicarboxamide] | ≤ 10 | 10 to 100 | 10 to 100 | 10 to 100
12 | COc1cc2ncnc(Oc3ccc(NC(=O)C4(C(=O)Nc5ccc(F)cc5)CC4)cc3)c2cc1C(=O)NC1COC1 [Compound 115, 1-N′-(4-fluorophenyl)-1-N-[4-[7-methoxy-6-(oxetan-3-ylcarbamoyl)quinazolin-4-yl]oxyphenyl]cyclopropane-1,1-dicarboxamide] | 10 to 100 | 10 to 100 | 10 to 100 | 10 to 100
13 | COc1nc2c(Oc3ccc(NC(=O)C4(C(=O)Nc5ccc(F)cc5)CC4)cc3F)ncnc2cc1OCCCN1CCOCC1 [Compound 67, 1-N′-[3-fluoro-4-[6-methoxy-7-(3-morpholin-4-ylpropoxy)pyrido[3,2-d]pyrimidin-4-yl]oxyphenyl]-1-N-(4-fluorophenyl)cyclo-propane-1,1-dicarboxamide] | ≤ 10 | ≤ 10 | ≤ 10 | ≤ 10
14 | COc1cc2ncnc(Oc3ccc(NC(=O)C4(C(=O)Nc5ccc(F)cc5)CC4)cc3)c2cn1 [Compound 104, 1-N′-(4-fluorophenyl)-1-N-[4-(7-methoxypyrido[4,3-d]pyrimidin-4-yl)oxy-phenyl]cyclopropane-1,1-dicarboxamide] | 10 to 100 | 10 to 100 | 10 to 100 | > 300
15 | COc1cc2ncnc(Oc3ccc(NC(=O)C4(C(=O)Nc5ccc(F)cc5)CC4)cc3)c2cc1C(=O)NC[C@@H]1CCCN1 [Compound 122, 1-N′-(4-fluorophenyl)-1-N-[4-[7-methoxy-6-[[(2S)-pyrrolidin-2-yl]methyl-carbamoyl]quinazolin-4-yl]oxyphenyl]cyclopropane-1,1-dicarboxamide] | ≤ 10 | ≤ 10 | 10 to 100 | > 300
16 | COc1nc2c(Oc3ccc(NC(=O)C4(C(=O)Nc5ccc(F)cc5)CC4)cc3)ncnc2cc1OCCCN1CCOCC1 [Compound 65, 1-N′-(4-fluorophenyl)-1-N-[4-[6-methoxy-7-(3-morpholin-4-ylpropoxy)pyrido[3,2-d]pyrimidin-4-yl]oxyphenyl]cyclopropane-1,1-dicarboxamide] | ≤ 10 | 10 to 100 | 10 to 100 | ≤ 10
17 | COc1cc2ncnc(Oc3ccc(NC(=O)C4(C(=O)Nc5ccc(F)cc5)CC4)cc3)c2cc1C(=O)NC1CC1 [Compound 116, 1-N-[4-[6-(cyclopropylcarbamoyl)-7-methoxyquinazolin-4-yl]oxyphenyl]-1-N′-(4-fluorophenyl)cyclopropane-1,1-dicarboxamide] | 10 to 100 | 10 to 100 | 10 to 100 | 10 to 100
